# Experimental data published in patent US11230711B2, “Inhibition of LET7I as a means to enhance the protective effect of progesterone against stroke” (UNIVERSITY OF NORTH TEXAS HEALTH SCIENCE CENTER, priority 2017, dated 2022).
# Assays:
# [1] = system: primary cortical astrocytes; conditions: 10 nM P4; reported in reference (10); cited from earlier work
# let-7i = let-7i expression in the penumbra of the ischemic brain after MCAo (qRT-PCR); format: in vivo, mouse; conditions: MCAo mice; day 7 up to 14 days following stroke; FIG. 11E
# Source text: (FIG. 11A) Representative immunoblots probed for Pgrmc1, pro- and mature-BDNF. (FIG. 11B) Quantitation graph of relative Pgrmc1 protein ratio to Gapdh (n=4-5 per group). (FIG. 11C) Quantitation graph of relative pro-BDNF protein ratio to Gapdh (n=4-5 per group). (FIG. 11D) Quantitation graph of relative mature BDNF protein ratio to Gapdh (n=4-5 per group). (FIG. 11E) Quantitation graph of relative let-7i expression in ischemic brain (n=4-5 per group). n.s: not significant, ** P<0.01 and *P<0.05 compared to sham, and #P<0.05 compared to P4+scrambled. Data are presented as the mean±SEM.
# For miRNA expression measurements, total RNA (10 ng) was reverse transcribed into cDNA in a total volume of 15 μl using the microRNA cDNA Archive Kit (ThermoFisher Scientific) according to the manufacturer's instructions. The reaction mixture contained water, 2× quantitative PCR Master Mix (Eurogentec), and 20× Assay-On-Demand for each target gene. A separate reaction mixture was prepared for the endogenous control, U6. The reaction mixture was aliquoted in a 96-well plate, and cDNA added to give a final volume of 20 μl. Each sample was analyzed in triplicate. The comparative cycle threshold (Ct) method (2^−ΔΔCt) was used to calculate the relative changes in target miRNA expression.
# All mice were first ovariectomized to deplete endogenous ovarian hormone levels. […]
# synaptophysin (SYP) = experiment: Synaptophysin (SYP) protein and puncta in the penumbra after MCAo (immunofluorescence, Western blot); format: in vivo, mouse; conditions: MCAo mice
# Source text: FIGS. 14A-14D: Inhibition of let-7i enhances progesterone (P4)'s effect on the expression of synaptophysin in the penumbra. (FIG. 14A) Representative confocal images of penumbra region staining for synaptophysin (SYP, red) and DAPI (blue). (60×, Scale bars=30 μm). (FIG. 14B) Quantification of average relative SYP puncta presents in each field (n=3 per group). n.s: not significant and ***P<0.001 compared to sham, ### P<0.001 and ##P<0.01 compared to P4+scrambled. (FIG. 14C) Representative immunoblots probed for SYP protein. (FIG. 14D) Quantification graph of Syp signal, expressed as a ratio to Gapdh (n=4-5 per group). n.s: not significant, ***P<0.001 and **P<0.01 compared to sham, ## P<0.01 and #P<0.05 compared to P4+scrambled.
# Primary cortical astrocytes and mouse brains were lysed with RIPA lysis buffer containing protease and phosphatase inhibitors, as previously described (44). […] Total protein concentrations were determined using the Bio-Rad DC protein assay kit (Bio-Rad Laboratories). […]
# Mouse brains were fixed in 4% PFA overnight at 4° C. and subsequently cryoprotected in 30% sucrose solution. […] After immunostaining, sections were mounted onto microscope slides with Vectashield mounting medium (Vector Laboratories) and observed under a confocal fluorescence microscope (FV1200, Olympus) with a […] objective. […]
compound,measurement,setting,value
"CC(=O)[C@H]1CC[C@H]2[C@@H]3CCC4=CC(=O)CC[C@]4(C)[C@H]3CC[C@]12C [P4, progesterone]",release of BDNF from astrocytes,[1],maximal release of BDNF
same,stroke-induced increase in let-7i expression in the penumbra,let-7i,did not attenuate
same,SYP total protein expression in the penumbra,"synaptophysin (SYP); day 7 and day 14, FIG. 14D","delayed, but sustained, restoration"
same,number of SYP puncta in the penumbra,"synaptophysin (SYP); day 14, FIG. 14B",positive effect
